Experimental data reported in patent publication US8426458B2, “Hepatitis C Virus inhibitors” (priority 2009, dated 2013).

System: HCV 1b genotype replicon
Experiment: HCV replicon assay (qRT-PCR or luciferase), genotype 1b
Type: cell-based
Settings: Hepatitis C virus, read-out: Genotype-1b replicon EC50 Range
Description: HCV replicon cell lines (kindly provided by R. Bartenschlager) isolated from colonies as described by Lohman et. al. (Lohman et al. (1999) Science 285: 110-113, expressly incorporated by reference in its entirety) and used for all experiments. The HCV replicon has the nucleic acid sequence set forth in EMBL Accession No.: AJ242651, the coding sequence of which is from nucleotides 1801 to 8406.
The coding sequence of the published HCV replicon was synthesized and subsequently assembled in a modified plasmid pBR322 (Promega, Madison, Wis.) using standard molecular biology techniques. […]
EC50 values of single agent compounds and combinations were determined by HCV RNA detection using quantitative RT-PCR, according to the manufacturer's instructions, with a TaqMan® One-Step RT-PCR Master Mix Reagents Kit (Cat# AB 4309169, Applied Biosystems) on an ABI Model 7500 thermocycler. The TaqMan primers used for detecting and quantifying HCV RNA were obtained from Integrated DNA Technologies. HCV RNA was normalized to GAPDH RNA levels in drug-treated cells, which is detected and quantified using the Human GAPDH Endogenous Control Mix (Applied Biosystems, AB 4310884E). […] Chemical agent cytotoxicity is evaluated using an MTS assay according to the manufacturer's directions (Promega). […]

**Q.** CN(C)[C@H](C(=O)N1CCC[C@H]1c1nc(C(=O)N[C@H]2CC[C@H](NC(=O)c3c[nH]c([C@@H]4CCCN4C(=O)[C@@H](c4ccccc4)N(C)C)n3)CC2)c[nH]1)c1ccccc1 [Example 2] was tested. Which EC50 did it give?
**A.** > 10 nM
